Results published in ChEMBL document CHEMBL1155701, “Two novel cyclic peptides with antifungal activity from the cyanobacterium Tolypothrix byssoidea (EAWAG 195)” (J Nat Prod, 2001).
In brackets after ≈: the same amount, converted by molar mass. Non-standard residues stand in square brackets, D forms with d. Residues, ends and D or L forms follow the SMILES beside them. Dhb = C/C=C(\N)C(=O)O

Test system: Candida albicans
Assay: Antifungal activity against Candida albicans ATCC 26790
Type: functional, organism-based

| IC50 | MIC | Structure (SMILES) |
| --- | --- | --- |
| 8 µg/mL (≈ 19.2 µM) | – | Clc1ccc(COC(Cn2ccnc2)c2ccc(Cl)cc2Cl)c(Cl)c1 (stereo not drawn) [MICONAZOLE] |
| – | 64 µg/mL (≈ 42.9 µM) | C/C=C1\NC(=O)[C@H](C(C)C)NC(=O)[C@H](Cc2ccccc2)NC(=O)[C@H](C(C)C)NC(=O)[C@H](C(C)C)NC(=O)[C@H](C(C)C)NC(=O)[C@H]([C@@H](C)O)NC(=O)[C@H]([C@@H](C)CC)NC(=O)[C@H]([C@@H](C)O)NC(=O)[C@H](C(C)C)NC(=O)[C@H](CCSC)NC(=O)[C@H](Cc2ccc(O)cc2)NC(=O)[C@H](CCCNC(=N)N)NC1=O (cyclo([Dhb]RYMVTITVVVFV)) |
| – | 32 µg/mL (≈ 21.8 µM) | C/C=C1\NC(=O)[C@H](Cc2ccccc2)NC(=O)[C@H]([C@@H](C)CC)NC(=O)[C@H]([C@@H](C)CC)NC(=O)[C@H]([C@@H](C)O)NC(=O)[C@@H](CC(C)C)NC(=O)[C@H](CCCNC(=N)N)NC(=O)[C@H]2CCCN2C(=O)[C@H](C(C)C)NC(=O)[C@H](C(C)C)NC(=O)[C@H]([C@@H](C)O)NC(=O)[C@H]([C@@H](C)OC(C)=O)NC(=O)[C@H](C(C)C)NC1=O |
